Test results published in the supplement of paper PMC10307832.

Columns and labels:
Test in all cases: relative viability (nuclei count vs DMSO), 5 days (fraction); higher = more cells survive
PAC-1 + Foretinib = compound: C=CCc1cccc(/C=N/NC(=O)CN2CCN(Cc3ccccc3)CC2)c1O [PAC-1] + COc1cc2c(Oc3ccc(NC(=O)C4(C(=O)Nc5ccc(F)cc5)CC4)cc3F)ccnc2cc1OCCCN1CCOCC1 [Foretinib] (partner 0.25 µM)
Method in brief: (§1)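 The day after seeding in 1536-well plates, lung cancer cell lines were treated by pin tool with a single drug, or with a fixed anchor-drug dose together with five library-drug doses (not always all listed) in √10 steps. After 5 days, a combined fix-and-stain solution (final 0.05% Triton X-100, 1% formaldehyde, 1 ug/ml Hoechst) was added. Nuclei counted on 4× images gave relative viability as treated counts over vehicle counts, reported as the median of duplicate plates.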

PAC-1 + Dasatinib = compound: C=CCc1cccc(/C=N/NC(=O)CN2CCN(Cc3ccccc3)CC2)c1O [PAC-1] + Cc1nc(Nc2ncc(C(=O)Nc3c(C)cccc3Cl)s2)cc(N2CCN(CCO)CC2)n1 [Dasatinib] (partner 0.075 µM)
Method in brief: as §1

Ibrutinib + Pemetrexed = compound: C=CC(=O)N1CCC[C@@H](n2nc(-c3ccc(Oc4ccccc4)cc3)c3c(N)ncnc32)C1 [Ibrutinib] + Nc1nc2[nH]cc(CCc3ccc(C(=O)N[C@@H](CCC(=O)O)C(=O)O)cc3)c2c(=O)[nH]1 [Pemetrexed] (partner 0.2 µM)
Method in brief: as §1

BMX-IN-1 + AZD7762 = compound: C=CC(=O)Nc1cc(-n2c(=O)ccc3cnc4ccc(-c5ccc(NS(C)(=O)=O)cc5)cc4c32)ccc1C [BMX-IN-1] + NC(=O)Nc1cc(-c2cccc(F)c2)sc1C(=O)N[C@H]1CCCNC1 [AZD7762] (partner 0.2 µM)
Method in brief: as §1

Cell Line | relative viability (PAC-1 + Foretinib; first compound 0.02 µM) | relative viability (PAC-1 + Foretinib; first compound 0.06325 µM) | relative viability (PAC-1 + Foretinib; first compound 0.2 µM) | relative viability (PAC-1 + Foretinib; first compound 2 µM) | relative viability (PAC-1 + Dasatinib; first compound 0.02 µM) | relative viability (PAC-1 + Dasatinib; first compound 0.06325 µM) | relative viability (PAC-1 + Dasatinib; first compound 0.2 µM) | relative viability (PAC-1 + Dasatinib; first compound 2 µM) | relative viability (Ibrutinib + Pemetrexed; first compound 0.01581 µM) | relative viability (Ibrutinib + Pemetrexed; first compound 0.05 µM) | relative viability (Ibrutinib + Pemetrexed; first compound 0.1581 µM) | relative viability (Ibrutinib + Pemetrexed; first compound 0.5 µM) | relative viability (BMX-IN-1 + AZD7762; first compound 0.02 µM) | relative viability (BMX-IN-1 + AZD7762; first compound 0.2 µM) | relative viability (BMX-IN-1 + AZD7762; first compound 0.6325 µM) | relative viability (BMX-IN-1 + AZD7762; first compound 2 µM) | relative viability (Ibrutinib + Pemetrexed; first compound 0.005 µM)
SK-LU-1 | 0.834 | 0.797 | 0.78 | 0.78 | 0.208 | 0.173 | 0.185 | 0.181 | 0.975 | 1.08 | 1 | 1.09 | – | – | – | – | –
PC-3 [JPC-3] | 1.06 | 1.02 | 0.996 | 0.994 | 1.06 | 0.986 | 0.981 | 0.975 | 0.995 | 0.72 | 0.624 | 0.365 | 0.886 | 0.925 | 0.918 | 0.847 | 1.14
ChaGo-K-1 | 0.974 | 0.949 | 0.866 | 1.04 | 0.653 | 0.647 | 0.534 | 0.619 | 0.263 | 0.264 | 0.261 | 0.271 | 1.02 | 1.02 | 0.885 | 0.907 | 0.254
NCI-H3122 | 0.958 | 0.976 | 0.967 | 0.89 | 0.828 | 0.811 | 0.857 | 0.764 | 0.203 | 0.219 | 0.191 | 0.301 | 1.22 | 1.16 | 1.11 | 1.07 | 0.214
NCI-H1703 | 0.359 | 0.434 | 0.337 | 0.309 | – | – | – | – | – | – | – | – | 0.132 | – | – | 0.143 | –
NCI-H2126 | 1.28 | 1.25 | 1.15 | 1.12 | 0.615 | 0.584 | 0.642 | 0.615 | 0.653 | 0.717 | 0.671 | 0.69 | 1.03 | 1.06 | 1.16 | 1.04 | 0.509
NCI-H1993 | 0.718 | 0.746 | 0.608 | 0.826 | 0.65 | 0.611 | 0.421 | 0.483 | 0.58 | 0.609 | 0.567 | 0.597 | 0.907 | 0.926 | 0.706 | 0.724 | 0.444
NCI-H1793 | 0.651 | 0.504 | 0.646 | 0.559 | 0.373 | 0.373 | 0.364 | 0.412 | 0.877 | 0.664 | 0.515 | 0.501 | 0.513 | 0.661 | 0.594 | 0.588 | 0.526
NCI-H441 | 0.977 | 0.943 | 0.817 | 0.896 | 0.593 | 0.628 | 0.438 | 0.573 | 0.269 | 0.293 | 0.263 | 0.301 | 1.12 | 1.03 | 0.997 | 1.39 | 0.287
NCI-H661 | 1.05 | 0.963 | 0.967 | 0.957 | 0.992 | 1 | 0.89 | 0.892 | 0.927 | 0.89 | 0.902 | 0.8 | – | – | – | – | 0.868
COR-L 105 | 0.991 | 1.16 | 1.25 | 1.31 | 0.361 | 0.365 | 0.34 | 0.412 | 1.16 | 0.855 | 1.06 | 0.692 | – | – | – | – | 0.778
NCI-H2023 | 0.824 | 0.789 | 0.911 | 0.773 | 0.553 | 0.615 | 0.42 | 0.55 | 0.219 | 0.293 | 0.248 | 0.396 | – | – | – | – | 0.208
UMC-11 | 1.06 | 1.05 | 1.04 | 1.01 | 0.483 | 0.484 | 0.462 | 0.437 | 0.732 | 0.832 | 0.824 | 0.821 | – | – | – | – | 0.87
COR-L23 | 1.01 | 1.02 | 0.902 | 0.951 | 0.472 | 0.48 | 0.453 | 0.506 | 0.179 | 0.204 | 0.198 | 0.235 | – | – | – | – | 0.211
NCI-H727 | 0.811 | 1.02 | 0.937 | 0.881 | 0.334 | 0.338 | 0.368 | 0.358 | – | – | – | – | 0.574 | 0.585 | 0.635 | 0.541 | –
NCI-H1650 | 0.892 | 1.31 | 1.22 | 0.732 | 0.363 | 0.305 | 0.263 | 0.361 | 0.308 | 0.348 | 0.42 | 0.287 | – | – | – | – | 0.347
NCI-H522 | – | – | – | – | 0.881 | 0.91 | 0.894 | 0.899 | 0.789 | 0.795 | 0.925 | 0.956 | 1.07 | 0.914 | 0.769 | 0.846 | 1.12
NCI-H2009 | 1.2 | 1.23 | 1.21 | 1.19 | 0.267 | 0.305 | 0.291 | 0.334 | 1.06 | 1.16 | 1.11 | 1.22 | – | – | – | – | 1.08
NCI-H1563 | 0.928 | 1 | 0.976 | 0.935 | 0.446 | 0.431 | 0.44 | 0.495 | 0.812 | 0.741 | 0.706 | 0.657 | – | – | – | – | 0.623
NCI-H1623 | 0.86 | 0.851 | 0.961 | 0.868 | 0.513 | 0.556 | 0.605 | 0.533 | – | – | – | – | – | – | – | – | –
HCC-44 | – | – | – | – | – | – | – | – | 0.669 | 0.624 | 0.64 | 0.987 | 0.989 | 0.941 | 1.01 | 1.11 | 0.711
IA-LM | 1.17 | 1.19 | 1.11 | 1.17 | – | – | – | – | – | – | – | – | – | – | – | – | –
EBC-1 | 0.105 | 0.0969 | 0.139 | 0.121 | – | – | – | – | – | – | – | – | – | – | – | – | –
NCI-H520 | 0.818 | 0.769 | 0.682 | 0.723 | 0.172 | 0.213 | 0.19 | 0.225 | 0.769 | 0.666 | 0.718 | 0.724 | – | – | – | – | 0.67
SW 1573 | 0.828 | 0.741 | 0.912 | 0.979 | 0.537 | 0.561 | 0.44 | 0.52 | 0.917 | 0.968 | 0.88 | 1.25 | – | – | – | – | –
